Here are results for 30 compounds from ChEMBL document CHEMBL5518196, “Discovery of potent thiazolidin-4-one sulfone derivatives for inhibition of proliferation of osteosarcoma in vitro and in vivo” (Eur J Med Chem, 2024).

pIC50: −log10 of the molar value. The source made the active and inactive calls.

Data set [1] is described as follows: Metabolic stability in mouse liver microsomes assessed as half-life at 0.1 uM preincubated for 10 mins followed by NADPH addition and measured upto 60 mins by LC-MS/MS analysis. The format is ADME, Microsome. The following applies: time < 70 min. (Liver microsomes are vesicles of endoplasmic reticulum, rich in cytochrome P450 enzymes.)
The nature of data set [2]: Metabolic stability in human liver microsomes assessed as bioavailability at 0.1 uM preincubated for 10 mins followed by NADPH addition and measured upto 60 mins by LC-MS/MS analysis. Format: ADME, Microsome. The following applies: time < 70 min.
The nature of data set [3]: Metabolic stability in human liver microsomes assessed as half-life at 0.1 uM preincubated for 10 mins followed by NADPH addition and measured upto 60 mins by LC-MS/MS analysis. Format: ADME, Microsome. The settings on record: time < 70 min.
Data set [4] deals with HOS-TE85. Put plainly: Antiproliferative activity against human MNNG/HOS cells assessed as inhibition of cell growth incubated for 72 hrs by CCK8 assay. The format is functional, cell-based. The settings on record: HOS-TE85, 72 h. On the technique in general: Tetrazolium assays rely on reduction of a dye to a coloured formazan, in cell work by metabolically active cells.
A short description of data set [5]: Half-life in male Wistar rat at 100 mg/kg, po. The following applies: in vivo.
In data set [6] the test system is HOS-TE85. Nature of the data set: Antiproliferative activity against human MNNG/HOS cells assessed as inhibition of cell growth incubated for 24 to 72 hrs by CellTiter-Glo luminescent cell viability assay. The format is functional, cell-based. In general terms: ATP-based viability assays read luminescence as a measure of living cells.
The test system of data set [7] is HOS-TE85. Nature of the data set: Inhibition of colony formation in human MNNG/HOS cells at 4 uM incubated for 10 days by crystal violet staining based light microscopic analysis. Format: functional, cell-based. The following applies: time 10.0 day.
Data set [8] deals with HOS-TE85. Nature of the data set: Antitumor activity against human MNNG/HOS cells xenografted in female BALB/c mouse assessed as tumor growth inhibition at 30 mg/kg, po administered twice daily for 23 days relative to control. The format is functional. The following applies: HOS-TE85, 552 h, time 23 day, read-out: TGI.

For `COc1cccnc1N1C(=O)CS(=O)(=O)C1c1cccc(C(=O)NCCCCc2ccccc2)n1` (stereo unspecified), the half-life (usually the time needed for the level to fall by half in the phase considered) at 0.1 µM in data set [1] was 1.03 min; in data set [3], 2.12 min. In addition, the bioavailability – broadly, dose-corrected exposure relative to a reference, in per cent – at 0.1 µM in data set [2] came out at 1.94%. In addition, in data set [4], the negative logarithm of the IC50 (pIC50) (usually the negative decadic logarithm of the IC50, by convention in mol/L) is 8.22.
`Cc1ccnc(N2C(=O)CS[C@@H]2c2cccc(C(=O)NCCCCn3cccn3)c2)c1`: the half-life at 0.1 µM stood at 5.36 min in data set [1] and 16.3 min in data set [3]. In addition, in data set [2], the bioavailability at 0.1 µM was found to be 13.2%.
With `CNC(=O)c1cc(Oc2ccc(NC(=O)Nc3ccc(Cl)c(C(F)(F)F)c3)cc2)ccn1` [SORAFENIB], the half-life in data set [5] was 1310 min. Besides, the pIC50 in data set [6] was 5.32. The inhibition entry in data set [7] is “Active”. For the same compound, in data set [8], the inhibition in vivo at 30 mg/kg was 39.8%.
Consider `COCCCCNC(=O)c1cccc(C2N(c3ccccn3)C(=O)CS2(=O)=O)n1` (stereo unspecified), for which the results for the half-life at 0.1 µM in data set [1] and in data set [3] were 56.5 min and 90.6 min, respectively. Further, the bioavailability at 0.1 µM in data set [2] was determined as 45.8%. Further, in data set [4], the pIC50 is 6.83.
`COC(=O)c1cccc(C2N(c3ccccc3)C(=O)CS2(=O)=O)c1` (stereo unspecified): the pIC50 in data set [4] was < 5.00.
`O=C(NCCCCc1ccccc1)c1cccc(C2N(c3ccc(F)cn3)C(=O)CS2(=O)=O)n1` (stereo unspecified): the pIC50 in data set [4] is 7.70.
The same measure, in the same setting: in the case of `COC(=O)CCCNC(=O)c1cccc(C2N(c3ccccn3)C(=O)CS2(=O)=O)n1` (stereo unspecified) it was 6.85.
On to `O=C(O)c1cc(C(=O)NCCCCc2ccccc2)cc(C2N(c3ccccc3)C(=O)CS2(=O)=O)c1` (stereo unspecified), for which the pIC50 in data set [4] was < 5.00.
Consider `O=C(NCCCCc1ccccc1)c1cccc(C2N(c3cccc(F)c3)C(=O)C[S+]2[O-])c1` (stereo unspecified), for which the pIC50 in data set [4] is 7.08.
The same measure, in the same setting: in the case of `COCCCCNC(=O)c1cccc(C2N(c3ncccc3C)C(=O)CS2(=O)=O)n1` (stereo unspecified) it was 6.15; in that of `Cc1ccnc(N2C(=O)CS(=O)(=O)C2c2cccc(C(=O)NCCCCn3cccn3)n2)c1` (stereo unspecified), 6.03; in that of `O=C(CCCNC(=O)c1cccc(C2N(c3ccccn3)C(=O)CS2(=O)=O)n1)Nc1ccc(F)cc1` (stereo unspecified), < 6.00.
As for `O=C(NCCCCc1ccccc1)c1cccc(C2N(c3cc(Cl)ccn3)C(=O)CS2(=O)=O)n1` (stereo unspecified), the pIC50 in data set [4] was 6.33.
As to `O=C(NCCCCc1ccccc1)c1cccc(C2N(c3ccccn3)C(=O)CS2(=O)=O)n1` (stereo unspecified), in data set [4], the pIC50 was 6.96.
On the same count and under the same terms, in the case of `Cc1ccc(N2C(=O)CS(=O)(=O)C2c2cccc(C(=O)NCCCCc3ccccc3)n2)nc1` (stereo unspecified) it was 7.51; in that of `O=C(NCCCCc1ccccc1)c1cccc(C2N(C3CC3)C(=O)CS2(=O)=O)c1` (stereo unspecified), < 5.00.
On the same count and under the same terms, in the case of `Cc1cccnc1N1C(=O)CS(=O)(=O)C1c1cccc(C(=O)NCCCCc2ccccc2)n1` (stereo unspecified) it was 7.30; in that of `COCCCCNC(=O)c1cccc(C2N(c3ccc(C)cn3)C(=O)CS2(=O)=O)n1` (stereo unspecified), 6.58; in that of `O=C(NCCCCc1ccccc1)c1cc(-c2ccccc2)cc(C2N(c3ccccc3)C(=O)CS2(=O)=O)c1` (stereo unspecified), < 5.00.
Still for that read-out and setting: in the case of `COc1ccccc1N1C(=O)CS(=O)(=O)C1c1cccc(C(=O)NCCCCc2ccccc2)c1` (stereo unspecified) it was 7.51.
Consider `O=C(NCCCCc1ccccc1)c1cccc(C2N(c3ccccn3)C(=O)CS2(=O)=O)c1` (stereo unspecified), for which the pIC50 in data set [4] is 7.60.
Take `O=C(NCCCCc1ccccc1)c1cccc(C2N(Cc3ccccc3)C(=O)C[S+]2[O-])c1` (stereo unspecified): the pIC50 in data set [4] is < 5.00.
Still for that read-out and setting: with `COc1ccnc(N2C(=O)CS(=O)(=O)C2c2cccc(C(=O)NCCCCc3ccccc3)n2)c1` (stereo unspecified) the figure was 6.75; with `O=C(NCCCCc1ccccc1)c1cccc(C2N(C3CCCCC3)C(=O)CS2(=O)=O)c1` (stereo unspecified), 5.69.
The same measure, in the same setting: with `CN(CCCCc1ccccc1)C(=O)c1cccc(C2N(c3ccccc3)C(=O)CS2(=O)=O)c1` (stereo unspecified) the figure was < 5.00; with `O=C1CS(=O)(=O)C(c2cccc(C(=O)NCCCCc3ccccc3)c2)N1` (stereo unspecified), < 5.00.
Same read-out and setting: in the case of `Cc1cc(N2C(=O)CS(=O)(=O)C2c2cccc(C(=O)NCCCCc3ccccc3)c2)no1` (stereo unspecified) it was 6.35; in that of `O=C(NCCCCc1ccccc1)c1cccc(C2N(CCc3ccccc3)C(=O)CS2(=O)=O)c1` (stereo unspecified), < 5.00; in that of `Cc1ccnc(N2C(=O)CS[C@H]2c2cccc(C(=O)NCCCCn3cccn3)c2)c1`, < 5.00.
In the case of `O=C(CCCNC(=O)c1cccc(C2N(c3ccccn3)C(=O)CS2(=O)=O)n1)c1ccccc1` (stereo unspecified), the pIC50 in data set [4] is 6.69.
